Source: patent US20210269434A1, “TRICYCLIC COMPOUNDS AS INHIBITORS OF KRAS” (Incyte Corporation, priority 2020, published 2021)

Assays:
[1] = target: KRAS G12C (Homo sapiens, UniProt P01116, G12C); experiment: GDP-GTP exchange assay (KRAS_G12C exchange); type: biochemical; settings: bodipy-GDP loaded KRAS G12C 2.5 nM, SOS1 150 nM, GppNHp; 2 hours pre-incubation, 2 hours reaction; read-out: G12C_exchange
Procedure, shortened: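 Fluorescence exchange of bodipy-GDP for GppNHp, SOS1-driven, read at 485/520 nm; IC50 from four-parameter variable-slope fit. Both mutants used 2.5 nM final labelled protein and a 2 h compound pre-incubation. G12C reaction had 500 uM GppNHp and 150 nM SOS1 for 2 h; G12D ran 4 h.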

[2] = system: MIA PaCa-2 (KRAS G12C) cells; experiment: Cellular pERK HTRF assay (KRAS_G12C pERK); type: cell-based, human; settings: Homo sapiens, MIA PaCa-2, 4 hours incubation, read-out: G12C_pERK
Procedure, shortened: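 MIA PaCa-2 cells plated overnight, then exposed to compound for 4 h at 37 °C (G12C compounds). Phospho-ERK1/2 measured in lysates by HTRF (665/620 nm) after overnight antibody incubation; IC50 from percent inhibition versus log concentration.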

KRAS G12C, sequence (P01116 1-188 isoform P01116-2 G12C): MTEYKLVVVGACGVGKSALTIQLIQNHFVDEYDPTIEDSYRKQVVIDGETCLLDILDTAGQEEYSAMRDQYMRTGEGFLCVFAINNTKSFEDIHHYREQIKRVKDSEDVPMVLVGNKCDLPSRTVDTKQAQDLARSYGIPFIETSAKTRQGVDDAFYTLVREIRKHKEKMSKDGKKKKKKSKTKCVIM

| Compound | IC50 [1] [nM] | IC50 [2] [nM] |
| --- | --- | --- |
| Cc1cccc(-c2c(C)cc3c(nc(N4CC(N(C)C)C4)c4nnn([C@H]5CCN(C(=O)/C=C/CN(C)C)[C@H](CC#N)C5)c43)c2F)c1Cl [Example 249, 2-((2S,4S)-4-(7-(2-chloro-3-methylphenyl)-4-(3-(dimethylamino)azetidin-1-yl)-6-fluoro-8-methyl-1H-[1,2,3]triazolo[4,5-c]quinolin-1-yl)-1-((E)-4-(dimethylamino)but-2-enoyl)piperidin-2-yl)acetonitrile] | ≤ 100 | ≤ 100 |
| CN(C)C/C=C/C(=O)N1CC[C@H](n2cnc3c(N4CC(N(C)C)C4)nc4c(F)c(-c5cncc6ccccc56)c(Cl)cc4c32)C[C@H]1CC#N [Example 175, 2-((2S,4S)-4-(8-chloro-4-(3-(dimethylamino)azetidin-1-yl)-6-fluoro-7-(isoquinolin-4-yl)-1H-imidazo[4,5-c]quinolin-1-yl)-1-((E)-4-(dimethylamino)but-2-enoyl)piperidin-2-yl)acetonitrile] | ≤ 100 | ≤ 100 |
| C=CC(=O)N1CC[C@H](n2nnc3c(N4CC(N(C)C)C4)nc4c(F)c(-c5c(C)c(Cl)cc6[nH]ncc56)c(Cl)cc4c32)C[C@H]1CC#N (single isomer, unassigned) [Example 185a] | ≤ 100 | ≤ 100 |
| C=CC(=O)N1CC[C@H](n2nnc3c(N4CC(N(C)C)C4)nc4c(F)c(-c5cccc(Cl)c5Cl)c(Cl)cc4c32)C[C@H]1CC#N [Example 113, 2-((2S,4S)-1-acryloyl-4-(8-chloro-7-(2,3-dichlorophenyl)-4-(3-(dimethylamino)azetidin-1-yl)-6-fluoro-1H-[1,2,3]triazolo[4,5-c]quinolin-1-yl)piperidin-2-yl)acetonitrile] | ≤ 100 | ≤ 100 |
| C=CC(=O)N1CC[C@H](n2cnc3c(N4CC(N(C)C)C4)nc4c(F)c(-c5cccc(F)c5Cl)c(Cl)cc4c32)C[C@H]1CC#N [Example 58, 2-((2S,4S)-1-acryloyl-4-(8-chloro-7-(2-chloro-3-fluorophenyl)-4-(3-(dimethyl-amino)azetidin-1-yl)-6-fluoro-1H-imidazo[4,5-c]quinolin-1-yl)piperidin-2-yl)acetonitrile] | ≤ 100 | ≤ 100 |
| Cc1cccc(-c2c(C)cc3c(nc(N4CC(N(C)C)C4)c4nnn([C@H]5CCN(C(=O)/C=C/CF)[C@H](CC#N)C5)c43)c2F)c1Cl [Example 248, 2-((2S,4S)-4-(7-(2-chloro-3-methylphenyl)-4-(3-(dimethylamino)azetidin-1-yl)-6-fluoro-8-methyl-1H-[1,2,3]triazolo[4,5-c]quinolin-1-yl)-1-((E)-4-fluorobut-2-enoyl)piperidin-2-yl)acetonitrile] | ≤ 100 | ≤ 100 |
| C=CC(=O)N1CC[C@H](n2nnc3c(N4CCOCC4=O)nc4c(F)c(-c5cccc(C)c5Cl)c(C)cc4c32)C[C@H]1CC#N [Example 259, 2-((2S,4S)-1-acryloyl-4-(7-(2-chloro-3-methylphenyl)-6-fluoro-8-methyl-4-(3-oxomorpholino)-1H-[1,2,3]triazolo[4,5-c]quinolin-1-yl)piperidin-2-yl)acetonitrile] | ≤ 100 | ≤ 100 |
| C=CC(=O)N1CC[C@H](n2nnc3c(N4CC(N(C)C)C4)nc4c(Cl)c(-c5cccc(Cl)c5Cl)c(Cl)cc4c32)C[C@H]1CC#N [Example 281, 2-((2S,4S)-1-acryloyl-4-(6,8-dichloro-7-(2,3-dichlorophenyl)-4-(3-(dimethylamino)azetidin-1-yl)-1H-[1,2,3]triazolo[4,5-c]quinolin-1-yl)piperidin-2-yl)acetonitrile] | ≤ 100 | ≤ 100 |
| CC#CC(=O)N1CC[C@H](n2nnc3c(N4CC(N(C)C)C4)nc4c(F)c(-c5ccccc5C(F)(F)F)c(C)cc4c32)C[C@H]1CC#N [Example 166a, 2-((2S,4S)-1-(but-2-ynoyl)-4-(4-(3-(dimethylamino)-azetidin-1-yl)-6-fluoro-8-methyl-7-(2-(trifluoromethyl)-phenyl)-1H-[1,2,3]triazolo-[4,5-c]quinolin-1-yl)piperidin-2-yl)acetonitrile] | ≤ 100 | ≤ 100 |
| Cc1nccn1-c1nc2c(F)c(-c3ccccc3)c(Cl)cc2c2c1nnn2[C@H]1CCN(C(=O)/C=C/CN(C)C)[C@H](CC#N)C1 [Example 153, 2-((2S,4S)-4-(8-chloro-6-fluoro-4-(2-methyl-1H-imidazol-1-yl)-7-phenyl-1H-[1,2,3]triazolo[4,5-c]quinolin-1-yl)-1-((E)-4-(dimethylamino)but-2-enoyl)piperidin-2-yl)acetonitrile] | ≤ 100 | ≤ 100 |
| C=CC(=O)N1CCC(n2cnc3c(OC[C@@H]4CCCN4C)nc4c(F)c(-c5cccc(Cl)c5C)c(Cl)cc4c32)CC1CC#N (mixture of isomers) [Example 41, 2-(1-acryloyl-4-(8-chloro-7-(3-chloro-2-methylphenyl)-6-fluoro-4-(((S)-1-methylpyrrolidin-2-yl)methoxy)-1H-imidazo[4,5-c]quinolin-1-yl)piperidin-2-yl)acetonitrile] | ≤ 100 | ≤ 100 |
| C=CC(=O)N1CC[C@H](n2cnc3c(OC[C@@H]4CCCN4C)nc4c(F)c(-c5cccc(Cl)c5C)c(Cl)cc4c32)C[C@H]1CC#N (single isomer, unassigned) [Example 118a] | ≤ 100 | ≤ 100 |
| C=CC(=O)N1CC[C@H](n2cnc3c(N4CC(N(C)C)C4)nc4c(F)c(-c5ccccc5Cl)c(Cl)cc4c32)C[C@H]1CC#N [Example 57, 2-((2S,4S)-1-acryloyl-4-(8-chloro-7-(2-chlorophenyl)-4-(3-(dimethylamino)-azetidin-1-yl)-6-fluoro-1H-imidazo[4,5-c]quinolin-1-yl)piperidin-2-yl)acetonitrile] | ≤ 100 | ≤ 100 |
| C=CC(=O)N1CC[C@H](n2nnc3c(N4CC(C)(N(C)C)C4)nc4c(F)c(-c5ccc(F)cc5)c(C)cc4c32)C[C@H]1CC#N [Example 127, 2-((2S,4S)-1-acryloyl-4-(4-(3-(dimethylamino)-3-methylazetidin-1-yl)-6-fluoro-7-(4-fluorophenyl)-8-methyl-1H-[1,2,3]triazolo[4,5-c]quinolin-1-yl)piperidin-2-yl)acetonitrile] | ≤ 100 | ≤ 100 |
| C=CC(=O)N1CC[C@H](n2cnc3c(-n4ccnc4C)nc4c(F)c(-c5ccc(F)cc5)c(Cl)cc4c32)C[C@H]1CC#N [Example 123, 2-((2S,4S)-1-acryloyl-4-(8-chloro-6-fluoro-7-(4-fluorophenyl)-4-(2-methyl-1H-imidazol-1-yl)-1H-imidazo[4,5-c]quinolin-1-yl)piperidin-2-yl)acetonitrile] | ≤ 100 | ≤ 100 |
| C=CC(=O)N1CC[C@H](n2cnc3c(N4CC(N(C)C)C4)nc4c(F)c(-c5ccccc5C(F)(F)F)c(Cl)cc4c32)C[C@H]1CC#N [Example 106, 2-((2S,4S)-1-acryloyl-4-(8-chloro-4-(3-(dimethylamino)azetidin-1-yl)-6-fluoro-7-(2-(trifluoromethyl)phenyl)-1H-imidazo[4,5-c]quinolin-1-yl)piperidin-2-yl)acetonitrile] | ≤ 100 | ≤ 100 |
| C=CC(=O)N1CC[C@H](n2nnc3c(OC[C@@H]4CCCN4C)nc4c(F)c(-c5cccc(C)c5C)c(C)cc4c32)C[C@H]1CC#N [Example 137, 2-((2S,4S)-1-acryloyl-4-(7-(2,3-dimethylphenyl)-6-fluoro-8-methyl-4-(((S)-1-methylpyrrolidin-2-yl)methoxy)-1H-[1,2,3]triazolo[4,5-c]quinolin-1-yl)piperidin-2-yl)acetonitrile] | ≤ 100 | ≤ 100 |
| C=CC(=O)N1CCC(n2cnc3c(OC[C@@H]4CCCN4C)nc4c(F)c(-c5cccc(C)c5C)c(Cl)cc4c32)CC1CC#N (mixture of isomers) [Example 43, 2-(1-acryloyl-4-(8-chloro-7-(2,3-dimethylphenyl)-6-fluoro-4-(((S)-1-methyl-pyrrolidin-2-yl)methoxy)-1H-imidazo[4,5-c]quinolin-1-yl)piperidin-2-yl)acetonitrile] | ≤ 100 | ≤ 100 |

More lines, now with the values ahead:

| IC50 [1] [nM] | IC50 [2] [nM] | Compound |
| --- | --- | --- |
| ≤ 100 | ≤ 100 | C=CC(=O)N1CC[C@H](n2cnc3c(N4CC(N(C)C)C4)nc4c(F)c(-c5c(C)c(Cl)cc6[nH]ncc56)c(Cl)cc4c32)C[C@H]1CC#N (single isomer, unassigned) [Example 267a] |
| ≤ 100 | ≤ 100 | CC#CC(=O)N1CC[C@H](n2nnc3c(N4CC(C)(N(C)C)C4)nc4c(F)c(-c5cccc(Cl)c5OC)c(C(F)(F)F)cc4c32)C[C@H]1CC#N (single isomer, unassigned) [Example 243b] |
| ≤ 100 | ≤ 100 | C=CC(=O)N1CCC(n2nnc3c(N4CC(N(C)CC)C4)nc4c(F)c(-c5cccc6cccc(Cl)c56)c(Cl)cc4c32)C[C@H]1CC#N (single isomer, unassigned) [Example 219a] |
| ≤ 100 | ≤ 100 | CC#CC(=O)N1CC[C@H](n2nnc3c(OC[C@@H]4CCCN4C)nc4c(F)c(-c5cccc(C)c5Cl)c(CCC#N)cc4c32)C[C@H]1CC#N (single isomer, unassigned) [Example 242a] |
| ≤ 100 | ≤ 100 | C=CC(=O)N1CC[C@H](n2nnc3c(N4CC(C)(N(C)C)C4)nc4c(F)c(-c5ccc(F)c6cccnc56)c(C(F)(F)F)cc4c32)C[C@H]1CC#N (single isomer, unassigned) [Example 233a] |
| ≤ 100 | ≤ 100 | C=CC(=O)N1CC[C@H](n2nnc3c(N4CC(N(C)C)C4)nc4c(Cl)c(-c5ccc(F)c6cccnc56)c(Cl)cc4c32)C[C@H]1CC#N (single isomer, unassigned) [Example 271a] |
